Results published in a melting point compilation (Tetko et al.; mined from patent text by program, amines drawn as free bases though some values may be those of a salt).

Row | melting point | SMILES
1 | 85 °C | OC1CCc2c(F)cc(F)cc2C1 (stereo unspecified)
2 | 232 to 234 °C | O=c1c2cc(F)c(N3CCCC3)cc2n(-c2ccc(F)cc2F)c(=O)n1O
3 | > 300 °C | CS(=O)(=O)Oc1ccc2c(c1)[nH]c(=O)c1c3ccc(OS(C)(=O)=O)cc3oc21
4 | 272 to 274 °C | Cc1c(CN2CCOCC2)ccc2c1-c1[nH]nc(-c3ccsc3)c1C2
5 | 48 to 49 °C | CCOC(=O)[C@@H]1CCC(=O)N1C(=O)OC(C)(C)C
6 | 78 to 79 °C | CC(C)Oc1ccc(/C=C(\NC(=O)c2ccc(OCCc3ccc4ccccc4c3)cc2)C(=O)NCCO)cc1
7 | 107 to 109 °C | CCCCCCCCCCCCCCCCN=C=O
8 | 105 °C | CCCCCCCCCCc1ccc(COc2ccc(-c3ncc(CCCCCCCCC)cn3)cc2)cc1
9 | 174 to 175 °C | CC(C)Cn1c(=O)n(C)c(=O)c2c(S(=O)(=O)CCCC(=O)O)c(Cc3cccc4ccccc34)sc21
10 | 240 to 242 °C | CC(C)c1c(C(=O)Nc2ccc(C(=O)O)cc2)c(-c2ccccc2)c(-c2ccc(F)cc2)n1CC[C@@H]1C[C@H](CC(=O)OC(C)(C)C)OC(C)(C)O1
11 | 222 °C | CCOC(=O)c1cccc(-c2coc3c(C)c(O)ccc3c2=O)c1
12 | 116 to 119 °C | CSc1nc2cnc3ccccc3c2s1
13 | 140 to 141 °C | FC(F)(F)c1cc(NC(=S)N[C@@H]2CCCC[C@H]2NCc2ccccc2)cc(C(F)(F)F)c1
14 | 53 to 56 °C | CCCCc1c(C(=O)N(C)Cc2ccc3c(Br)c(O)ccc3c2)oc2ccccc12
15 | 248 to 249 °C | CC(C)(C)OC(=O)N1CCC(CCNC2(c3ccccc3Cl)C(=O)Nc3cc(Cl)c(Cl)cc32)CC1 (stereo unspecified)
16 | 215 to 216 °C | Clc1cc2nc(Cl)c(I)n2cc1Cl
17 | 153 to 155 °C | CCOC(=O)Nc1cc(I)c(NS(C)(=O)=O)cc1OC
18 | 292 to 294 °C | CC(C)(C)Nc1c(NCc2ccc(OC(F)(F)F)cc2)c(=O)c1=O
19 | 200 to 203 °C | CCCc1cc(O)nc(SCC(N)=O)n1
20 | 194 to 196 °C | CCOC(=O)c1ccc(-n2cnnc2S)cc1
21 | 129 to 132 °C | CS(=O)CC(=O)c1ccc(Cl)cc1N (stereo unspecified)
22 | 127 to 133 °C | N#Cc1ccc(CN2CCNC2=O)cc1
23 | 148 to 150 °C | CN(C(=O)Cc1csc(N)n1)c1ccc(Cl)cc1
24 | 89 to 92 °C | COc1ccc(C2OC(O[Si](C)(C)C)(C(F)(F)F)C(C)(C)N2C(=O)COc2ccccc2)cc1 (stereo unspecified)
25 | 130 to 131 °C | O=c1c(=NNc2ccccc2)c(=O)n(-c2ccccc2)c2ccccc2n1CCC1C2CC3CC(C2)CC1C3 (stereo unspecified)

Row | melting point | SMILES
26 | 95 to 96 °C | CCOC(=O)c1ccc(-c2nn(Cc3ccccc3)c3ccccc23)cc1
27 | 80 to 81 °C | COC(=O)c1ccc(OC2=C3N=C4CCCCC4=C3C(Cc3ccc(C)cc3)C=C2)o1 (stereo unspecified)
28 | 275 °C | Cc1nc2cc3c(cc2c(=O)[nH]1)OCCO3
29 | 148 to 152 °C | CCOC(=O)Cc1ccnc(C(SC)=C(C#N)C#N)c1
30 | 217 to 219 °C | CC(C)(C)C(=O)c1c[nH]c2ncc(-c3cccc(NS(=O)(=O)c4ccccc4)c3)nc12
31 | 87 to 89 °C | CN(CC(=O)c1ccc(N2CCOCC2)cc1)C(=O)OC(C)(C)C
32 | 82 °C | C=C(Cc1ccccc1)C(=O)NCC(=O)O
33 | 152 to 154 °C | COc1ccccc1NC(=O)Nc1nc2nc(NCCCN3CCN(C)CC3)ncc2cc1-c1c(Cl)cccc1Cl
34 | > 260 °C | CCN1c2ccc(C#N)cc2N(CCCCS(=O)(=O)O)C1C (stereo unspecified)
35 | 95 to 96 °C | O=C1CCCN1C(=O)Oc1cccc(Br)c1
36 | 86 to 87 °C | O=C(CCC1CCC(=O)O1)NCCc1ccccc1 (stereo unspecified)
37 | 174 to 175 °C | C[C@@H](NC(=O)c1csc(-c2ccccc2)n1)[C@](O)(Cn1cncn1)c1ccc(F)cc1F
38 | 99 °C | CCCOc1ccc(CC(=O)NCCc2ccc(OCC)c(OCC)c2)cc1OCCC
39 | 174 to 176 °C | COc1c(N2CCC(n3cc(C)nn3)C2)c(F)cc2c(=O)c(C(=O)O)cn(C3CC3)c12 (stereo unspecified)
40 | 111 to 112 °C | CC(C)(C)OC(=O)/C(=C/c1ccc2ccccc2c1)C(=O)c1ccccc1O
41 | 214 to 215 °C | O=C(Nc1cn(C2CCCCO2)nc1C(=O)NCCO)c1ccccn1 (stereo unspecified)
42 | 81 to 82 °C | Cc1cccc(OCC(O)CNCCOc2ccccc2)c1 (stereo unspecified)
43 | 105 °C | O=C(OCc1ccccc1)N1CCC2(CC1)CN(c1ccc(Cl)c(Cl)c1)C(=O)O2
44 | 328 to 330 °C | S=C1N=c2cc(Cl)c(Cl)cc2=N1
45 | 86 to 87 °C | CCC1(CC)NC(=O)N(c2ccc(Cl)c(C(F)(F)F)c2)C1=O
46 | 145 to 155 °C | O=C(O)[C@H]1CN(C(=O)OCc2ccccc2)CCN1c1cc(Cl)ccc1[N+](=O)[O-]
47 | > 220 °C | N#Cc1ccc(F)c(C(c2cc(N)ncc2Cl)S(=O)(=O)c2ccc(Cl)cc2)c1 (stereo unspecified)
48 | 235 to 237 °C | COc1ccc(N2CCN(Cc3ccc(Nc4ccnc5cc(C(F)(F)F)ccc45)cc3)CC2)cc1
49 | 50 to 51 °C | CC1(C)C=Cc2cc(OCc3ccccc3)c(OCc3ccccc3)cc2O1
50 | 159 to 161 °C | CCCCN1C(=O)C2C(=O)N(Cc3cc(C)ccc3C)C(=O)C(C1=O)C2(C)C

Row | melting point | SMILES
51 | 217 to 218 °C | O=C(Cn1c(=O)n(S(=O)(=O)c2ccc(Cl)cc2)c(=O)c2ccc(Cl)cc21)Nc1ccccc1
52 | 155 to 157 °C | CCOC(=O)CN(CC(=O)OCC)[C@H]1CC[C@H](Nc2ncc3ncnc(Nc4ccc(F)c(Cl)c4)c3n2)CC1
53 | 191 to 192 °C | CC(=O)n1ncc2c(O)cc(C)cc21
54 | 164 to 166 °C | COC(=O)c1cccc(-c2c(C)[nH]c(=S)n2Nc2cccc(C)c2)c1
55 | 127 to 129 °C | Cc1cc(C(N)=NO)ccc1[N+](=O)[O-]
56 | 110 to 112 °C | C=Cc1ccc(COc2ccc(CCl)cc2)cc1
57 | 268 to 271 °C | CCn1cc(C(=O)O)c(=O)c2cc(F)c(OC3CCN(C)CC3)cc21
58 | 202 to 205 °C | Cc1nc2c(c3ccccc3n3nnnc23)n1CC(C)(C)O
59 | 83 to 88 °C | CC(=O)N(C)CC(C)c1ccncc1 (stereo unspecified)
60 | 168 to 169 °C | COc1ccc(C2CCN(C(N)=O)CC2)cc1CC1CCCC1
61 | 90 to 91 °C | CN(C)CCOc1ccc(/C(=C(\c2ccccc2)C(F)(F)F)c2ccccc2)cc1
62 | 218 to 219 °C | COc1ccc(C(c2ccc(OC)c(O)c2)n2cncn2)cc1O
63 | 212 to 213 °C | CSC(=S)N1Cc2c(c3ccccc3n2C)CC1C(=O)O (stereo unspecified)
64 | 156 to 157 °C | CCCNC(=O)N=c1ccn(-c2ccccc2)nc1
65 | 88 to 89 °C | CC(NC(=O)c1cccnc1)c1ccccc1 (stereo unspecified)
66 | 169 to 174 °C | COc1cncnc1N1CCN(CCCc2c[nH]c3ccc(CNC(C)=O)cc23)CC1
67 | 105 to 107 °C | COc1ccc(N2C(=O)C(N3C(=O)c4ccccc4C3=O)C2C(C)=Cc2ccccc2)cc1 (stereo unspecified)
68 | > 250 °C | O=C(O)c1ccccc1CN1C(=O)C2(COc3cc4c(cc32)OCO4)c2ccccc21 (stereo unspecified)
69 | 207 to 209 °C | N#Cc1ccc(-c2cc(-c3cc(C#N)ccc3Cl)on2)cc1
70 | 100 to 101 °C | COc1ccc(CCOc2ccc(NC(=O)N(C)OC)cc2)cc1
71 | 272 to 274 °C | CC(=O)N1CCN(c2c(C)c(C)c3c(c2C)C(c2ccc(C)cc2)C(C)(C)O3)CC1 (stereo unspecified)
72 | 91 to 93 °C | Cc1nc(O)sc1CC(C)Cl (stereo unspecified)
73 | 190 to 192 °C | CCOC(=O)NN=Cc1nc(Cc2ccccc2)[nH]c1C
74 | 113 to 115 °C | OCCc1ccc(-c2ccc(Cl)cc2)cc1
75 | 165 to 167 °C | CC(=O)NCc1ccc2c(c1)N(C1CCNCC1)CC2

Row | melting point | SMILES
76 | 215 to 216 °C | Cc1cc(C)c(C2C(=O)CC(c3ccccc3)CC2=O)c(C)c1 (stereo unspecified)
77 | 207 °C | Cn1c(=O)[nH]c2cc(F)ccc21
78 | 120 °C | Cc1oc(-c2ccccc2)nc1CCOc1ccc(CC(C(=O)O)c2nc(-c3ccccc3)oc2C)cc1 (stereo unspecified)
79 | 190 °C | CCOC(=O)c1c(O)nc2c(C(F)(F)F)cccc2c1O
80 | 186 °C | COC(=O)c1cc(-c2ccc(Cl)cc2)n(-c2ccc(S(N)(=O)=O)cc2)n1
81 | > 260 °C | O=c1[nH]c2sc(Cl)c(C3CC3)c2[nH]c1=O
82 | 178 to 180 °C | O=[N+]([O-])c1cccnc1NCCc1c[nH]cn1
83 | 172 to 173 °C | COc1cc2c(cc1OCc1ccccc1)C=C(C(=O)O)CCC2
84 | 95 to 97 °C | CCN(CC)CCC1(C(N)=O)Cc2ccccc2N(CC)c2ccccc21 (stereo unspecified)
85 | 166 to 168 °C | NCCCCCCCCCCCCCCCCCCCCCC(=O)O
86 | 75.4 °C | C=CC(=O)Oc1cccc(-c2ccc3cc(OC(=O)C=C)ccc3c2)c1
87 | 89 °C | CC(C(=O)N(c1ccccc1)c1ccccc1)N1C(=O)c2ccccc2C1=O (racemic)
88 | 85.5 to 86 °C | CCCCCCCCCCCCCCCCOc1cc(NS(=O)(=O)c2cc([N+](=O)[O-])ccc2OCCOC)c(O)cc1C
89 | 137 to 141 °C | CC(Oc1ccc(Oc2cnc3ccccc3n2)cc1)C(=O)O (stereo unspecified)
90 | 210 to 212 °C | COC(=O)c1cccc2nc(OCC(F)(F)F)n(Cc3ccc(-c4ccccc4-c4nnn[nH]4)cc3)c12
91 | 101 to 103 °C | CC(C)NC(=O)c1ccccc1
92 | 76 to 88 °C | OC(c1ccc(OC(F)(F)F)cc1)(c1ccc(OC(F)(F)F)cc1)C1CCN(Cc2c[nH]c3cccc(F)c23)CC1
93 | 216 to 218 °C | O=C1COC(=O)N1C(c1ccccc1)(c1ccccc1)c1ccccc1
94 | 194 °C | COc1ccc2c(c1)C(NC(C)C)=C(C(N)=O)S2=O (stereo unspecified)
95 | 130 to 131 °C | Cc1nc(-c2ccc(C(F)(F)F)cc2)sc1C(=O)NCc1ccc(OC(C)(C)C(=O)O)cc1
96 | 97 to 99 °C | Cc1cccc(C=Cc2c(C(C)C)nc(C(C)C)c(CO)c2-c2ccc(F)cc2)c1
97 | 147 to 149 °C | COCCN1CSC(=Cc2cc(C(C)(C)C)c(O)c(C(C)(C)C)c2)C1=O
98 | 124 to 125 °C | Cc1cc(C(=O)c2[nH]c(=O)[nH]c(=O)c2C(C)C)cc([N+](=O)[O-])c1
99 | 182 to 186 °C | Cc1cc2nncn2nc1-c1cccc(N)c1

Row | SMILES | melting point
100 | O=C1C2CCN(CC2)C1CC(c1ccccc1)c1ccccc1 (stereo unspecified) | 107 °C
101 | O=C(OCC1CC1)c1ncn2c1[C@@H]1CCN1C(=O)c1cc(F)ccc1-2 | 171 to 172 °C
